# Measured values reported in patent US11166931B2, “Induction of arteriogenesis with an NO (nitric oxide) donor” (G. Pohl-Boskamp GmbH & Co. KG, priority 2012, dated 2021).
# “Also recorded” adds a separate entry of the source.
# Tests used:
# [1] = system: Sprague-Dawley rats; experiment: ST segment elevation (ECG) during final permanent LAD occlusion (FPO), rat repetitive ischemia protocol (RIP) arteriogenesis model; format: in vivo
# [2] = system: arteriogenesis; details: nitroglycerin: administered continuously; cited from earlier work
# [3] = system: Sprague-Dawley rats; experiment: Infarct size by TTC staining after final permanent occlusion; format: in vivo, rat
# [4] = system: Sprague-Dawley rats; experiment: Ventricular arrhythmias during FPO, Lown classification and VPB score; details: rat, in vivo
structure (smiles),measurement,setting,value
"CC(=O)Oc1ccccc1C(=O)O [ASA, acetyl salicylic acid]",ST elevation / ECG parameters during FPO compared to controls (in words),[1]; 5 DAYS RIP,impairment of ECG parameters
same,effect on arteriogenesis described in the art (in words),[2],inhibitor of arteriogenesis
same,infarct size / infarct volume compared to other groups (in words),[3]; 5 DAYS RIP,increase of infarct volumes
CC(=O)Oc1ccccc1C(=O)O [ASA+NTG-PLACEBO],VPB-Score,[4],5.50
same,rats with class IIIa arrhythmias (Lown) during FPO,[4],16.7%
same,rats with class IVb arrhythmias (Lown) during FPO,[4],83.3%
same,Infarct size (percentage of the area of the left ventricle),"[3]; rat, in vivo",13.92 ±1.71%
"O=[N+]([O-])O[C@H]1CO[C@H]2[C@@H]1OC[C@H]2O[N+](=O)[O-] [ISDN, isosorbide dinitrate]",ST elevation / ECG parameters during FPO compared to controls (in words),"[1]; rat, in vivo",non-significantly decreased; also recorded: decreases in ST elevation
same,arrhythmias during FPO compared to controls (in words),[4],less arrhythmias
same,infarct size / infarct volume compared to other groups (in words),"[3]; rat, in vivo",reduced infarct volumes
"O=[N+]([O-])OCC(CO[N+](=O)[O-])O[N+](=O)[O-] [NTG, nitroglycerin]",ST elevation / ECG parameters during FPO compared to controls (in words),"[1]; rat, in vivo",significantly attenuated ST elevation
same,arrhythmias during FPO compared to controls (in words),[4],decreased serious arrhythmias
same,effect on arteriogenesis described in the art (in words),[2],not able to induce angiogenesis (neovascularisation) or arteriogenesis
same,infarct volume decreased compared to the control group,"[3]; rat, in vivo",more than 50%
